Reference: US12497403B2, “Factor XIa inhibitors” (Merck Sharp & Dohme LLC, priority 2021, dated 2025)
pIC50: −log10 of the molar value. In brackets after ≈: the same amount, converted by molar mass. Like-named read-outs stand apart in the source and are kept apart here.

How the values were obtained:
[1] = target: T1, Human Norepinephrine Transporter (NET) (Homo sapiens, UniProt P23975); assay: Norepinephrine Transporter functional antagonist uptake assay; type: cell-based; settings: [3H]Norepinephrine uptake, human recombinant NET in MDCK cells
T1 construct: host or cells: MDCK cells
T1 sequence (P23975 whole entry): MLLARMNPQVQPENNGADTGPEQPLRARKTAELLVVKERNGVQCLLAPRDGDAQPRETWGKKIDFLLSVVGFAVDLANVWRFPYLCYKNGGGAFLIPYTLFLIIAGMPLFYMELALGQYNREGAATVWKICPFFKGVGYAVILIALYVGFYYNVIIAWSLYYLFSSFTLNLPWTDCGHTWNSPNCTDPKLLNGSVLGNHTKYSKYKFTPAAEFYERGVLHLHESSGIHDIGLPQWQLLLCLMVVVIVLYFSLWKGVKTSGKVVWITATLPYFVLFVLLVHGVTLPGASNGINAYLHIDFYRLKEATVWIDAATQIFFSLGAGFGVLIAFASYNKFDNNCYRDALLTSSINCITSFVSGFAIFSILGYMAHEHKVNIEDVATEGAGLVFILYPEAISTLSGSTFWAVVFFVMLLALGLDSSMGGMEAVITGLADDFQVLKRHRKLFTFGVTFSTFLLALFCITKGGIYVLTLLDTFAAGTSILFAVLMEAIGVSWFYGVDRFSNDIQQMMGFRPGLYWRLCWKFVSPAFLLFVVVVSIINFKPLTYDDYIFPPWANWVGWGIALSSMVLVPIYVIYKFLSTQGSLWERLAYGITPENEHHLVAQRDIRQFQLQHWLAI
Protocol: Human Norepinephrine Transporter (NET) Functional Antagonist Uptake Assay was carried out at Panlabs Cerep (assay#302100). Human recombinant norepinephrine transporter expressed in MDCK cells were plated overnight. Test compound and/or vehicle was pre-incubated with cells (2×10E5/ml) in modified Tris-HEPES buffer pH 7.1 for 20 minutes at 25° C. and 25 nM [3H]Norepinephrine was then added for an additional 15 minute incubation period. A lysate was obtained from solubilized cells and counted to determine [3H]Norepinephrine uptake. Reduction of [3H]Norepinephrine uptake by 50 percent or more (≥50%) relative to 10 μM desipramine indicates significant inhibitory activity. Compounds are screened at 10, 3, 1, 0.3, 0.1, 0.03, 0.01 and 0.003 μM. These same concentrations are concurrently applied to a separate group of untreated cells and evaluated for possible compound-induced cytotoxicity only if significant inhibition of uptake is observed. IC50 values were determined by a non-linear, least squares regression analysis using MathIQTM (IDBusiness Solutions Ltd., UK).

human tissue kallikrein = target: T2, human tissue kallikrein (Homo sapiens, UniProt P06870); assay: Inhibition of tissue kallikrein enzymatic activity; type: biochemical; settings: human tissue kallikrein 5 nM, N-acetyl-KPR-AFC substrate, 25° C., pH 7.4; read-out: tKal IC50
T2 construct: purchased Ray Biotech or Evotec 228-10996
T2 sequence (P06870 25-262): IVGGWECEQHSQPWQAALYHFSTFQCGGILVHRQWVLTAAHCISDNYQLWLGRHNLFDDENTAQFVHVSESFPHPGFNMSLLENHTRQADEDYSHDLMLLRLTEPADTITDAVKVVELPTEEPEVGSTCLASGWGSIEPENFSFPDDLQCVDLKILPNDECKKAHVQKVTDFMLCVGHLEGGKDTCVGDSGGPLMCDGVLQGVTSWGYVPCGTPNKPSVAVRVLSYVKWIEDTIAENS
Protocol: Compounds were assayed with human tissue kallikrein (Ray Biotech, Cat # 228-10996 or Evotec, final concentration 5 nM) in 50 mM HEPES, 150 mM NaCl, 5 mM CaCl2, 0.1% PEG-8000, pH 7.4 at 25° C. in a Corning 3575 non-binding surface microplate. Compounds were tested in 10-point dose titrations starting at 166.67 uM with a 3-fold dilution series. Tissue kallikrein enzymatic activity was determined by measuring the rate of cleavage of N-acetyl-KPR-AFC substrate (Sigma, Cat # C6608, final concentration 100 uM) by continuously monitoring the fluorescence at 400/505 nm using a Tecan Safire plate-reader. The initial reaction rates (0) to 20 minutes) were used to determine percent inhibition. The % Inhibition for each data point was recalculated from the RFU/min data and analyzed using the log(inhibitor) vs. response four parameters equation with the GraphPad Prism software.

[2] = High-throughput (HT) solubility determination; type: physicochemical; settings: kinetic from dmso stock
Protocol: The chromatographic system consists of an Agilent 1290 UPLC/DAD system and ChemStation software, both from Agilent Technologies, USA. The separations are carried out on a Supelco Ascentis Express C18, 30 mm×3.0 mm I.D., 2.7 μm HPLC column. The mobile phase consists of Potassium phosphate buffered at pH 7 (mobile phase A) and acetonitrile (mobile phase B). The column oven temperature is set to 30° C. and the UPLC analysis consists of a gradient. The injection volume is 2 μL and the spectrophotometric detection is set to 215 and 238 nm.
A 10 mM stock solution of the compound in DMSO is supplied for analysis. 2.5 μL of stock solution (10 mM) was diluted into 247.5 μL of organic co-solvents (10% MeCN/80% MeOH/10% DMSO, v/v/v) to create a standard solution of 100 μM. To create the solubility solutions, 4.1 μL of 10 mM DMSO stock solution was diluted into […] of phosphate buffered saline (PBS) (pH 7) solution. A second 4.1 μL aliquot of 10 mM DMSO stock solution was added to 196 μL of PBS (pH 2) solution. A third 4.1 uL aliquot of 10 mM DMSO stock solution was added to 196 uL of FaSSIF (pH 6.5) solution. […] The equilibrated solubility solutions were filtered by centrifugation using a filter (0.45 μm, polypropylene). 50 μL each of the 100 μM standard solution and the filtered equilibrated solubility solutions were placed into a 384 well plate, and the plate was subsequently heat sealed.
Each standard and solubility solution was analyzed by UPLC/DAD. The solubility value was calculated by the following equation: Solubility=(Peak area of sample/Peak area of standard) (Standard concentration)

[3] = Rat pharmacokinetics (cassette IV or screening IV/PO); type: in vivo; settings: male; rat plasma, mean residence time
Protocol: Plasma pharmacokinetic parameters for clearance, volume of distribution, half-life and mean residence time (MRT) were determined in rats from IV cassette administration studies. 2 male rats typically weighing 225-260 gram, were fasted overnight prior to dosing. Compounds were prepared for IV dosing by addition to a vehicle, depending on the dose used. For a typical preparation, 1 mg per mL (IV) of up to 5 test compounds were added to vehicle comprised of 20% dimethyl sulfoxide (DMSO), 60% polyethylene glycol 400 (PEG400) and 20% water. IV formulation was administered to 2 rats via pre-cannulated jugular vein. Blood was collected by pre-cannulated artery, typically at predose, 2, 8, 15, 30 min. 1, 2, 4, 6, and 8 hr postdose. Samples were collected in K2EDTA tubes, stored on ice, and centrifuged. Plasma was transferred to a micro titer plate and stored at −70° C.until analysis. Plasma samples were extracted using protein precipitation and analyzed by liquid chromatography separation followed by mass spec detection (LCMS/MS), using a standard curve for each compound. Plasma pharmacokinetic parameters were calculated by non-compartmental methods.
Plasma pharmacokinetic parameters for clearance, volume of distribution, half-life, mean residence time (MRT) and oral bioavailability (%F)-were determined in rats from oral administration and IV administration studies. 4 male rats, typically weighing 225-260 gram, were fasted overnight prior to dosing. Compounds were prepared for oral and IV dosing by addition to a vehicle, depending on the dose used. For a typical preparation, 1 mg per mL (IV) or 1.5 mg per mL (oral) of test compound was added to vehicle comprised of 20% dimethyl sulfoxide (DMSO), 60% polyethylene glycol 400 (PEG400) and 20% water. IV formulation was administered to 2 rats via pre-cannulated jugular vein, and oral dosing was administered to 2 rats via oral gavage. Blood was collected by pre-cannulated artery, typically at predose, 2 min, 8 min, 15 min. 30 min, and 1, 2, 4, 6, and 8 hr postdose for IV, and at predose, 15 min, 30 min, and 1, 2, 4, 6, 8 hr for oral dosing. Samples were collected in K2EDTA tubes, stored on ice, and centrifuged. Plasma was transferred to a micro titer plate and stored at −70° C. until analysis. Plasma samples were extracted using protein precipitation and analyzed by liquid chromatography separation followed by mass spec detection (LCMS/MS), using a standard curve for each compound. Plasma pharmacokinetic parameters were calculated for IV and oral dosing data by non-compartmental methods. Oral bioavailability was determined as the ratio of the dose-normalized plasma area under the curve (AUC) following oral dosing vs. IV dosing.

[4] = FaSSIF pH 6.5, shaken 24 hours at 25° C., read-out: pH 6.5 (FaSSIF) solubility
[5] = phosphate buffered saline (PBS) pH 2, aqueous buffer, PBS pH 2, shaken 24 hours at 25° C., read-out: pH 2 solubility

SMILES | pIC50 [1] | pIC50 (human tissue kallikrein) | solubility kinetic at 24 h [2, 4] [µM] | solubility kinetic at 24 h [2, 5] [µM] | MRT [3] [h]
COC(=O)Nc1ccc2c(c1)NC(=O)C(C)(C)CCC[C@H](c1ccc(-c3cc(F)ccc3-n3cc(C(F)(F)F)cn3)c[n+]1[O-])c1nc-2c(C(=O)OC)[nH]1 [Example 6, (R,Z)-5-(5-fluoro-2-(4-(trifluoromethyl)-1H-pyrazol-1-yl)phenyl)-2-(1^5-(methoxycarbonyl)-2^4-((methoxycarbonyl)amino)-5,5-dimethyl-4-oxo-1^1H-3-aza-1(4,2)-imidazola-2(1,2)-benzenacyclononaphane-9-yl)pyridine 1-oxide] | < 5.00 | < 3.78 | 64 (≈ 47.1 µg/mL) | 163 (≈ 120 µg/mL) | 3.1
CCOC(=O)c1[nH]c2nc1-c1ccc(NC(=O)OC)cc1NC(=O)C(C)(C)CCC[C@@H]2c1ccc(-c2cc(Cl)cnc2OC(F)F)c[n+]1[O-] [Example 4, (R,Z)-5′-chloro-2′-(difluoromethoxy)-6-(1^5-(ethoxycarbonyl)-2^4-((methoxycarbonyl)amino)-5,5-dimethyl-4-oxo-1^1H-3-aza-1(4,2)-imidazola-2(1,2)-benzenacyclononaphane-9-yl)-[3,3′-bipyridine] 1-oxide] | < 5.00 | < 3.78 | 33 (≈ 23.1 µg/mL) | 137 (≈ 95.8 µg/mL) | 3.8
CCOC(=O)c1[nH]c2nc1-c1ccc(NC(=O)OC)cc1NC(=O)C(C)(C)CCC[C@@H]2c1ccc(-c2cc(F)ccc2OC(F)F)c[n+]1[O-] [Example 3, (R,Z)-5-(2-(difluoromethoxy)-5-fluorophenyl)-2-(1^5-(ethoxycarbonyl)-2^4-((methoxycarbonyl)amino)-5,5-dimethyl-4-oxo-1^1H-3-aza-1(4,2)-imidazola-2(1,2)-benzenacyclononaphane-9-yl)pyridine 1-oxide] | < 5.00 | 6.05 | 40 (≈ 27.3 µg/mL) | 171 (≈ 117 µg/mL) | 3.2
CCOC(=O)c1[nH]c2nc1-c1ccc(NC(=O)OC)cc1NC(=O)C(C)(C)CCC[C@@H]2c1ccc(-c2cc(Cl)ccc2-n2cc(C(F)(F)F)cn2)c[n+]1[O-] [Example 2, (R,Z)-5-(5-chloro-2-(4-(trifluoromethyl)-1H-pyrazol-1-yl)phenyl)-2-(1^5-(ethoxycarbonyl)-2^4-((methoxycarbonyl)amino)-5,5-dimethyl-4-oxo-1^1H-3-aza-1(4,2)-imidazola-2(1,2)-benzenacyclononaphane-9-yl)pyridine 1-oxide] | < 5.00 | < 3.78 | 27 (≈ 20.7 µg/mL) | 104 (≈ 79.7 µg/mL) | 3.7
CCOC(=O)c1[nH]c2nc1-c1ccc(NC(=O)OC)cc1NC(=O)C(C)(C)CCC[C@@H]2c1ccc(-c2cc(F)ccc2-n2cc(C(F)(F)F)cn2)c[n+]1[O-] [Example 1, (R,Z)-2-(1^5-(ethoxycarbonyl)-2^4-((methoxycarbonyl)amino)-5,5-dimethyl-4-oxo-1^1H-3-aza-1(4,2)-imidazola-2(1,2)-benzenacyclononaphane-9-yl)-5-(5-fluoro-2-(4-(trifluoromethyl)-1H-pyrazol-1-yl)phenyl)pyridine 1-oxide] | < 5.00 | < 3.78 | 39 (≈ 29.2 µg/mL) | 147 (≈ 110 µg/mL) | 4
CCOC(=O)c1[nH]c2nc1-c1ccc(NC(=O)OC)cc1NC(=O)C(C)(C)CCC[C@@H]2c1ccc(-c2cccc(Cl)c2F)c[n+]1[O-] [Example 5, (R,Z)-5-(3-chloro-2-fluorophenyl)-2-(1^5-(ethoxycarbonyl)-2^4-((methoxycarbonyl)amino)-5,5-dimethyl-4-oxo-1^1H-3-aza-1(4,2)-imidazola-2(1,2)-benzenacyclononaphane-9-yl)pyridine 1-oxide] | < 5.00 | 4.82 | 51 (≈ 33.2 µg/mL) | 108 (≈ 70.2 µg/mL) | 3.7
